The source of these data is patent US10513519B2, “Solid forms of (1S,4S)-4-(2-(((3S,4R)-3-fluorotetrahydro-2H-pyran-4-yl)amino)-8-((2,4,6-trichlorophenyl)amino)-9H-purin-9-yl)-1-methylcyclohexane-1-carboxamide and methods of their use” (Signal Pharmaceuticals, LLC, priority 2016, dated 2019).

Data set [1] concerns DUSP4, DUSP6, cyclin D1, c-Myc, YAP in Colo 205 (BRAF V600E). Kind of data set: Western blot of MAPK, Wnt and Hippo pathway markers in Colo 205. The format is cell-based. The method, then:
The ability of Compound 1 to inhibit MAPK signaling was assessed by determining the DUSP4 and DUSP6 protein expression. Colon cancer cell line Colo 205 (BRAF V600E) cultures were treated with DMSO or increasing concentrations of Compound 1 for 2, 8 or 24 h. Proteins were extracted from treated cells and analyzed by Western blot using antibodies against DUSP4, DUSP6, cyclin D1, c-Myc, YAP or β-actin. RNAs were extracted using Cell-To-CT kit and quantitative PCR was performed with probes specific for DUSP4, DUSP6, SPRY2, c-Myc and cyclin D1. Specific probes for β-actin were used for normalization.
Compound 1 modulation of MAPK, WNT/β-catenin, and Hippo/YAP pathway markers was evaluated by standard Western blotting. LOX-IMVI, SW48, and Colo-205 cells were plated in 6-well plates at a density of 250,000 cells per well and were allowed to attach overnight. Compound 1 was added to cells at concentrations of 0.03, 0.1, 0.3, 1, and 3 μM for durations of 2, 8, and 24 hours. […] The cell lysates were heated in sodium dodecyl sulfate (SDS)-sample buffer and 40 μg of cell lysate per condition were loaded onto gels and separated using SDS polyacrylamide gel electrophoresis (PAGE). Protein was transferred to nitrocellulose membrane, and immunoblotted with anti DUSP4, DUSP6, cMyc, Cyclin D1, YAP, AXIN2, HDAC5 (phospho S498), and β-actin antibodies. Membranes were scanned on the Licor Odyssey system.
In general terms: In western blotting, separated proteins are transferred to a membrane and probed.

Data set [2] concerns PD-L1 in HOP62, KARPAS-299, and LOX-IMVI. As to the kind of experiment: PD-L1 expression by Western blot. The format is cell-based. The settings on record: HOP62, KARPAS-299, and LOX-IMVI (BRAF V600E). How it is done:
The effect of Compound 1 was evaluated on PD-L1 expression levels. Cells were cultured in presence or absence of Compound 1 for indicated time before expression levels of PD-L1, DUSP4 and α-tubulin or α-actin were measured by Western blot. To detect surface levels of PD-L1, cells were treated with DMSO or Compound 1 at indicated concentrations for 48 h and cell surface expression of PD-L1 was detected using flow cytometry analysis (FACS) with an APC-labeled antibody to PD-L1 (clone 29E.1A3.; BioLegend, San Diego, Calif.). Geometric mean of PD-L1 positive cells was determined by FlowJo 10 (Treestar, Ashland, Oreg.).

In another data set the test system is Colo 205 xenograft. Kind of data set: Colo 205 subcutaneous colorectal xenograft model. The format is in vivo, SCID mice. How it is done:
For xenograft model studies human cancer cell lines were injected into SCID (severe combined immunodeficiency) mice. Cancer cell lines were propagated in culture in vitro. Tumor bearing animals were generated by injecting precisely determined numbers of cells into mice. Following inoculation of animals, the tumors were allowed to grow to a certain size prior to randomization. The mice bearing xenograft tumors ranging between pre-determined sizes were pooled together and randomized into various treatment groups. A typical efficacy study design involved administering one or more compounds at various dose levels to tumor-bearing mice. Additionally, reference chemotherapeutic agents (positive control) and negative controls were similarly administered and maintained. Tumor measurements and body weights were taken over the course of the study.
In the first experiment Compound 1 was administered orally, QD for 15 days at 0.2, 1, 5, 10, and 15 mg/kg.

For data set [3], the system named is Hep3B2.1-7 orthotopic xenograft. Kind of data set: Orthotopic Hep3B2.1-7 hepatocellular carcinoma xenograft. The format is in vivo, SCID mice. How it is done:
Female SCID mice were orthotopically inoculated with 2×10^6 Hep3B2.1-7 tumor cells per animal. Seven days post-inoculation the animals were randomized into treatment groups based on body weight and the treatment commenced (Study day 0). Take rate assessment of a satellite group confirmed the presence of tumor in the liver in 100% of the animals. Treatment with Compound 1 was started and Compound 1 was dosed orally, QD for 21 days. […] On the day of study termination, the tumors were removed and weighed. Individual tumor weights and the mean tumor weight±SEM of each group was plotted (FIG. 203). Percent inhibition was calculated relative to the vehicle control. P values were derived from a one-way ANOVA with a Dunnet's post-hoc analysis. ***=p<0.001.

Molecules are shown by their SMILES.

`C[C@]1(C(N)=O)CC[C@@H](n2c(Nc3c(Cl)cc(Cl)cc3Cl)nc3cnc(N[C@@H]4CCOC[C@H]4F)nc32)CC1` [Compound 1, cis-4-[2-{[(3S,4R)-3-fluorooxan-4-yl]amino}-8-(2,4,6-trichloroanilino)-9H-purin-9-yl]-1-methylcyclohexane-1-carboxamide]: in data set [1] (Colo 205), the “cyclin D1 and c-Myc RNA and protein levels” value was “significantly decreased”. Besides, the YAP protein entry in data set [1] (Colo 205, 24 h) is “decreased YAP protein”. For the same compound, in data set [1] (Colo 205, as early as 2 h, sustained through 24 h), the “DUSP4 and DUSP6 protein” value was “significantly reduced”. Also, the PD-L1 expression result in data set [2] was “directly inhibits PD-L1 expression”. For the same compound, the antitumor activity entry was “Dose-dependent antitumor activity” with Colo 205 xenograft (orally, QD for 15 days at 0.2, 1, 5, 10, and 15 mg/kg); “Dose-dependent antitumor activity” in the data set on Colo 205 xenograft (scheduling study (BID dosing)); “Significant antitumor activity” in data set [3] (orthotopic Hep3B, hepatocellular). The body weight result is recorded as “minimal body weight loss” in data set [3] (15 mg/kg, orally, QD for 21 days) and “significant mean body weight gain” in data set [3] (30 mg/kg, orally, QD for 21 days). Besides, the “tumor weight compared to vehicle controls” value in data set [3] (orally, QD for 21 days) is “statistically significant reduction in tumor weight”.
